Test results as given in patent publication US20160262390A1, “FIELD APPLICATION OF SUGARS TO INCREASE CROP YIELD” (Minn-Dak Farmers Cooperative, priority 2015, published 2016).

What was measured:
soybeans = experiment: Soybean field trial, Wilkin County, Minnesota (NKS06-H5 seed); type: in vivo
Experimental: To test the efficacy of using a sugar based fertilizer composition with soybeans, field trials using Northrup-King NKS06-H5 soybean seed were conducted in Wilkin County, Minnesota. A total of six (6) treatments were conducted. Each treatment was replicated four times arranged in a Randomized Complete Block (RCB) Design in the same field. Each replication consisted of a plot having a width of six (6) rows with twenty two (22) inch row spacing having a row length of twenty five (25) feet. To reduce/eliminate any treatment impacts between adjacent plots, only the four (4) interior rows of each plot were treated and evaluated. With the exception of the treatment program applied to the individual plots, which will be discussed below, conventional commercial growing practices were otherwise followed during the field trials. The individual plots experienced the same growing conditions throughout the season.
The treatment regimen for the soybeans included one (1) untreated treatment in which no sugar was applied and was used as the control element. One (1) treatment included treatment with Sun Energy Foliar Fertilizer (SE). […] SE was supplied in liquid form and applied by spraying while GS was supplied in a conventional solid form and applied via broadcast spreading. SE is for foliar application and was applied according to the labeling instructions on post-emergent (Post) soybean plants at both the Vegetative Fourth Trifoliolate (V4) and Reproductive Beginning Flowering (R1) stages. GS was applied at a variety of times, both pre-planting (Pre) and on post-emergent (Post) soybean plants at either or the V4 or R1 stages. When applied during pre-planting (Pre), the GS was spread directly on the soil before spring tillage, lightly worked into the ground and followed by planting of the soybean seed into the treated ground. A summary of the plot treatments is contained in Table 4 below:
Following a conventional growing season, the middle four rows of each plot were harvested and data collected for overall yield (bushels of soybeans/Acre), protein dry basis (%) and oil dry basis (%). Fisher's Exact LSD was the statistical test of choice for mean separation for the individual plots of each treatment. A summary of the soybean harvest data is contained in Table 5 below: […]

sugarbeets = experiment: Sugarbeet field trial, Wilkin County, Minnesota (ACH 228 seed); type: in vivo
Experimental: To test the efficacy of using a sugar based fertilizer composition with sugarbeets, a field trial using Crystal® brand ACH 228 sugarbeet seed was conducted in Wilkin County, Minnesota. A total of eleven (11) treatments were conducted. Each treatment was replicated four times arranged in a Randomized Complete Block (RCB) Design in the same field. Each replication consisted of a plot having a width of six (6) rows with twenty two (22) inch row spacing having a row length of twenty five (25) feet. To reduce/eliminate any treatment impacts between adjacent plots, only the four (4) interior rows of each plot were treated and evaluated. With the exception of the treatment program applied to the individual plots, which will be discussed below, conventional commercial growing practices were otherwise followed during the field trials. The individual plots experienced the same growing conditions throughout the season.
The treatment regimen for the sugarbeets included one (1) untreated treatment in which no sugar was applied was used as the control element. One (1) treatment included Sun Energy Foliar Fertilizer (SE) available from Micro Nutrients Online. […] treatments were conducted using GS. SE is available in liquid form and was applied by spraying while GS was supplied in a conventional solid form and applied via broadcast spreading. SE is for foliar application and was applied according to the labeling instructions on post-emergent (Post) sugarbeet plants at the both the 4-Leaf and 8-Leaf stages. GS was applied at a variety of times, both pre-planting (Pre) and on post-emergent sugarbeet plants (Post) at either or both of the 4-Leaf and 8-Leaf stages. When applied during pre-planting (Pre), the GS was spread directly on the soil before spring tillage, lightly worked into the ground and followed by planting of the sugarbeet seed into the treated ground. A summary of the plot treatments are contained in Table 1 below:
Following a conventional growing season, the middle four rows of each plot were harvested and data collected for overall yield (tons of sugarbeets/Acre), sugar per ton (pounds of recoverable sugar/ton of sugarbeets) and sugar per Acre (pounds of recoverable sugar/Acre). Fisher's Exact LSD was the statistical test of choice for mean separation for the individual plots of each treatment. A summary of the sugarbeet harvest data is contained in Table 2 below: […]

[1] = Replication 3: 100 pounds/Acre Pre + 3 pounds/Acre Post (V4)
[2] = Replication 4: 3 pounds/Acre Post (R1)
[3] = Replication 5: 5 pounds/Acre Post (R1)
[4] = Replication 6: 100 pounds/Acre Pre + 5 pounds/Acre Post (V4)
[5] = Replication 3: 50 pounds/Acre Pre
[6] = Replication 4: 100 pounds/Acre Pre
[7] = Replication 5: 3 pounds/Acre 4-Leaf Post
[8] = Replication 6: 3 pounds/Acre 8-Leaf Post
[9] = Replication 7: 5 pounds/Acre 4-Leaf Post
[10] = Replication 8: 3 pounds/Acre 4-Leaf + 3 pounds/Acre 8-Leaf Post
[11] = Replication 9: 5 pounds/Acre 4-Leaf + 5 pounds/Acre 8-Leaf Post
[12] = Replication 10: 50 pounds/Acre Pre + 3 pounds/Acre 8-Leaf
[13] = Replication 11: 100 pounds/Acre Pre + 5 pounds/Acre 8-Leaf

## OC[C@H]1O[C@@](CO)(O[C@H]2O[C@H](CO)[C@@H](O)[C@H](O)[C@H]2O)[C@@H](O)[C@@H]1O [GS, sucrose]
soybeans; GS 100 pounds/acre prior to planting, 40 and 60 days after planting (FIGS. 7-9)
  side-by-side visual comparison of soybean plants with untreated check: larger more robust soybean plants
soybeans; [1]
  Bushels of Soybeans/Acre: 52.92 bushels/Acre
  Yield Increase (Treatment Bushels of Soybeans/Acre)/(Check Bushels of Soybeans/Acre): 31.84%
soybeans; [2]
  Bushels of Soybeans/Acre: 35.56 bushels/Acre
  Yield Increase (Treatment Bushels of Soybeans/Acre)/(Check Bushels of Soybeans/Acre): −11.41%
soybeans; [3]
  Bushels of Soybeans/Acre: 40.14 bushels/Acre
  Yield Increase (Treatment Bushels of Soybeans/Acre)/(Check Bushels of Soybeans/Acre): 0.00%
soybeans; [4]
  Bushels of Soybeans/Acre: 45.28 bushels/Acre
  Yield Increase (Treatment Bushels of Soybeans/Acre)/(Check Bushels of Soybeans/Acre): 12.81%
soybeans; every pre-planting (Pre) application of GS
  yield increase as compared to the untreated check: at least 12.8%
soybeans; only post-emergent application of GS
  yield data: inconclusive
sugarbeets; [5]
  Pounds of Recoverable Sugar/Acre: 7598.95 pounds/Acre
  Pounds of Recoverable Sugar/Ton of Sugarbeets: 282.03 pounds/ton
  Tons of Sugarbeets/Acre: 26.94 tons/Acre
  Yield Increase (recoverable sugar/Acre vs check): 9.32%
sugarbeets; [6]
  Pounds of Recoverable Sugar/Acre: 8051.44 pounds/Acre
  Pounds of Recoverable Sugar/Ton of Sugarbeets: 278.54 pounds/ton
  Tons of Sugarbeets/Acre: 28.91 tons/Acre
  Yield Increase (recoverable sugar/Acre vs check): 15.83%
sugarbeets; [7]
  Pounds of Recoverable Sugar/Acre: 7021.89 pounds/Acre
  Pounds of Recoverable Sugar/Ton of Sugarbeets: 276.83 pounds/ton
  Tons of Sugarbeets/Acre: 25.41 tons/Acre
  Yield Increase (recoverable sugar/Acre vs check): 1.02%
sugarbeets; [8]
  Pounds of Recoverable Sugar/Acre: 7279.72 pounds/Acre
  Pounds of Recoverable Sugar/Ton of Sugarbeets: 284.34 pounds/ton
  Tons of Sugarbeets/Acre: 25.64 tons/Acre
  Yield Increase (recoverable sugar/Acre vs check): 4.73%
sugarbeets; [9]
  Pounds of Recoverable Sugar/Acre: 6712.87 pounds/Acre
  Pounds of Recoverable Sugar/Ton of Sugarbeets: 274.69 pounds/ton
  Tons of Sugarbeets/Acre: 24.43 tons/Acre
  Yield Increase (recoverable sugar/Acre vs check): −3.43%
sugarbeets; [10]
  Pounds of Recoverable Sugar/Acre: 6125.93 pounds/Acre
  Pounds of Recoverable Sugar/Ton of Sugarbeets: 270.05 pounds/ton
  Tons of Sugarbeets/Acre: 22.81 tons/Acre
  Yield Increase (recoverable sugar/Acre vs check): −11.87%
sugarbeets; [11]
  Pounds of Recoverable Sugar/Acre: 6957.73 pounds/Acre
  Pounds of Recoverable Sugar/Ton of Sugarbeets: 289.83 pounds/ton
  Tons of Sugarbeets/Acre: 24.00 tons/Acre
  Yield Increase (recoverable sugar/Acre vs check): 0.10%
sugarbeets; [12]
  Pounds of Recoverable Sugar/Acre: 7250.53 pounds/Acre
  Pounds of Recoverable Sugar/Ton of Sugarbeets: 276.34 pounds/ton
  Tons of Sugarbeets/Acre: 26.24 tons/Acre
  Yield Increase (recoverable sugar/Acre vs check): 4.31%
sugarbeets; [13]
  Pounds of Recoverable Sugar/Acre: 7963.70 pounds/Acre
  Pounds of Recoverable Sugar/Ton of Sugarbeets: 274.29 pounds/ton
  Tons of Sugarbeets/Acre: 29.03 tons/Acre
  Yield Increase (recoverable sugar/Acre vs check): 14.57%
sugarbeets; every pre-planting application of GS
  yield increase in comparison to the untreated check: ≥ 4%
sugarbeets; largest pre-planting applications of GS
  yield increase as compared to the untreated check: ≥ 14%
sugarbeets; only post-emergent application of GS at 4-Leaf or 8-Leaf stage
  yield data: inconclusive
